This passage reports IC50 and inhibition results from patent US7910600B2, “Therapeutic kinase modulators” (Cylene Pharmaceuticals, Inc., priority 2007, dated 2011).

In assay [1] the test system is HCT-116 human colorectal carcinoma cells. Put plainly: Cell proliferation assay (Alamar Blue), HCT-116. The assay is classed as cell-based. As to conditions: HCT-116 cell line. The procedure: (§1) A representative cell-proliferation assay protocol using Alamar Blue dye (stored at 4° C., use 20 ul per well) is described hereafter.
(§2) 96-Well Plate Setup and Compound Treatment
(§3) • a. Split and trypsinize cells. • b. Count cells using hemocytometer. • c. Plate 4,000-5,000 cells per well in 100 μl of medium and seed into a 96-well plate according to the following plate layout. Add cell culture medium only to wells B10 to B12. Wells B1 to B9 have cells but no compound added.
(§4) • d. Add 100 μl of 2× drug dilution to each well in a concentration shown in the plate layout above. At the same time, add 100 μl of media into the control wells (wells B10 to B12). Total volume is 200 μl/well. • e. Incubate four (4) days at 37° C., 5% CO2 in a humidified incubator. • f. Add 20 μl Alamar Blue reagent to each well. • g. Incubate for four (4) hours at 37° C., 5% CO2 in a humidified incubator. • h. Record fluorescence at an excitation wavelength of 544 nm and emission wavelength of 590 nm using a microplate reader.
(§5) In the assays, cells are cultured with a test compound for approximately four days, the dye is then added to the cells and fluorescence of […] dye is detected after approximately four hours. Different types of cells can be utilized in the assays (e.g., HCT-116 human colorectal carcinoma cells, PC-3 human prostatic cancer cells and MiaPaca human pancreatic carcinoma cells).
In general terms: Resazurin is reduced to fluorescent resorufin, in cell work by metabolically active cells.

In a further assay the test system is PanC1. Put plainly: Cell proliferation assay (Alamar Blue), PanC1. The assay is classed as cell-based. Particulars: Homo sapiens, PANC-1; PanC1 cell line. As to the method: as §1, §2, §3, §4, §5
Assay [2] deals with MiaPaca human pancreatic carcinoma cells. As to the kind of experiment: Cell proliferation assay (Alamar Blue), MiaPaCa. In kind it is cell-based. Particulars: MIA PaCa-2, MiaPaCa cell line. The procedure:
as §1, §2, §3, §4, §5

Another assay relates to Jurkat. Put plainly: Cell proliferation assay (Alamar Blue), Jurkat. In kind it is cell-based. As to conditions: Homo sapiens; Jurkat cell line. As to the method:
as §1, §2, §3, §4, §5

A further assay deals with MDA-MB231. Put plainly: Cell proliferation assay (Alamar Blue), MDA-MB231. In kind it is cell-based. As to conditions: Homo sapiens, MDA-MB-231; MDA-MB231 cell line. As to the method:
as §1, §2, §3, §4, §5

For a further assay, the system named is MV-4-11. Put plainly: Cell proliferation assay (Alamar Blue), MV-4-11. In kind it is cell-based. As to conditions: Homo sapiens, MV4-11; MV-4-11 cell line. As to the method: as §1, §2, §3, §4, §5
For the next assay, the system named is K562. As to the kind of experiment: Cell proliferation assay (Alamar Blue), K562. The assay is classed as cell-based. Particulars: Homo sapiens; K562 cell line. The procedure:
as §1, §2, §3, §4, §5

The target in the next assay is T1, recombinant human CK2 (Homo sapiens, UniProt P68400).
T1 construct: purchased Upstate
T1 sequence (P68400 whole entry): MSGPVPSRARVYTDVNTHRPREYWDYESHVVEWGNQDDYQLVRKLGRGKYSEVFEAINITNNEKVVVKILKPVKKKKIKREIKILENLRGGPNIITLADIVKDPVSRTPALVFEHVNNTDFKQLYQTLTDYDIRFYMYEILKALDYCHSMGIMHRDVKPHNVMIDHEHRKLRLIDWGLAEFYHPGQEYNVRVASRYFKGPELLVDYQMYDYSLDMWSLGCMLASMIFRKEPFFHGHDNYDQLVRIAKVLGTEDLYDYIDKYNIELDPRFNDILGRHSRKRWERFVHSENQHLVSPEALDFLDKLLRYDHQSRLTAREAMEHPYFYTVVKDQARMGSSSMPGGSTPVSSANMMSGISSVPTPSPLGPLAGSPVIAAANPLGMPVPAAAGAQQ
T1 sequence (P67870 whole entry partner): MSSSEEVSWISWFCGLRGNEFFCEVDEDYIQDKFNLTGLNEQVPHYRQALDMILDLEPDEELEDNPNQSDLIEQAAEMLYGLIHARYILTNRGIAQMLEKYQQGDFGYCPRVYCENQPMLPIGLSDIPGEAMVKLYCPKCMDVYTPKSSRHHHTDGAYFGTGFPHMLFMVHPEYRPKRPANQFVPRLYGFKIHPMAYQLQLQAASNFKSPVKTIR
As to the kind of experiment: Cell-free CK2 assay. The assay is classed as biochemical. As to the method:
Modulatory activity of compounds described herein is assessed in vitro in cell-free CK2 assays. These assays are described hereafter.
Test compounds in aqueous solution are added at a volume of 10 microliters, to a reaction mixture comprising 10 microliters Assay Dilution Buffer (ADB; 20mM MOPS, pH 7.2, 25 mM beta-glycerolphosphate, 5 mM EGTA, 1 mM sodium orthovanadate and 1 mM dithiothreitol), 10 microliters of substrate peptide (RRRDDDSDDD (SEQ ID NO:4), dissolved in ADB at a concentration of 1 mM), 10 microliters of recombinant human CK2 (25 ng dissolved in ADB; Upstate). Reactions are initiated by the addition of 10 microliters of ATP Solution (90% 75 mM MgC12, 75 micromolar ATP dissolved in ADB; 10% [γ-^33P]ATP (stock 1 mCi/100 μl; 3000 Ci/mmol (Perkin Elmer) and maintained for 10 minutes at 30 degrees C. The reactions are quenched with 100 microliters of 0.75% phosphoric acid, then transferred to and filtered through a phosphocellulose filter plate (Millipore). After washing each well 5 times with 0.75% phosphoric acid, the plate is dried under vacuum for 5 min and, following the addition of 15 ul of scintillation fluid to each well, the residual radioactivity is measured using a Wallac […].

Another assay has as its system BxPC3. As to the kind of experiment: Cell proliferation assay (Alamar Blue), BxPC3. The assay is classed as cell-based. As to conditions: Homo sapiens, BXPC-3; BxPC3 cell line; read-out: Bx-PC3. The procedure: as §1, §2, §3, §4, §5

On to `Cn1cc(-c2nc3cc(C(=O)O)ccc3c3cnc(NC4CC4)nc23)cn1`, for which the IC50 in assay [1] was > 10000 nM; in the assay on PanC1, > 30000 nM; in assay [2] it was 900 nM; with Jurkat, 3600 nM; in the assay with MDA-MB231, > 30000 nM; in the assay with MV-4-11, 600 nM. The results for the IC50 in the assay with K562, on recombinant human CK2 and in the assay with BxPC3 were 600 nM, 4 nM and 13600 nM, respectively. Further, the inhibition at 0.5 µM on recombinant human CK2 (read-out: CK2: % inh 500 nM) was 101%.
